Laboratory results as given in PubChem BioAssay (NCI).
Where “and” joins values, the source holds several entries; their conditions need not be identical. Identical values can stand only once.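 The compound was tested at five concentrations on cells cultured in 96-well plates, with a 48-hour exposure period. GI50 is the concentration that inhibits growth by half. At the TGI there is no net growth.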

Tests used:
Test in all cases: NCI tumour cell line growth inhibition, 48 h
[1] = test system: NCI-H460 lung
[2] = test system: RXF 393 renal
[3] = test system: HT29 colon
[4] = test system: LOX IMVI melanoma
[5] = test system: A549 NSCLC
[6] = test system: RPMI-8226 leukemia
[7] = test system: OVCAR-5 ovarian
[8] = test system: COLO 205 colon
[9] = test system: CCRF-CEM leukemia
[10] = test system: MDA-MB-231 breast

| Compound | TGI [1] | TGI [2] | TGI [3] | TGI [4] | TGI [5] | TGI [6] | TGI [7] | TGI [8] | TGI [9] | GI50 [2] | GI50 [1] | GI50 [3] | GI50 [4] | GI50 [5] | GI50 [6] | GI50 [7] | GI50 [8] | GI50 [9] | TGI [10] | GI50 [10] |
| --- | --- | --- | --- | --- | --- | --- | --- | --- | --- | --- | --- | --- | --- | --- | --- | --- | --- | --- | --- | --- |
| Cn1c(=O)nc2n(-c3cccc(F)c3)c3ccccc3nc-2c1=O | 67.1 µM | > 100 µM | 32.5 µM | 61.8 µM | 53.5 µM | 72.6 µM | 74.4 µM | 19 µM | 56.7 µM | – | – | – | – | – | – | – | – | – | – | – |
| CO/C1=C\C(C)=C\C(C)C(O)C(C)C/C(C)=C/C=C/C(OC)C(C(C)C(O)C(C)C2(O)CC(O)C(C)C(C(C)C)O2)OC1=O (centres undefined) | – | – | – | 2.64e-05 µM | 0.0222 µM and 0.0105 µM | – | – | – | – | 11.1 µM | – | – | – | – | – | – | – | – | – | – |
| Cc1c(C(=O)NCCO)[n+](=O)c2cc(Cl)ccc2n1[O-] | > 100 µM | > 100 µM | > 100 µM | > 100 µM | > 100 µM | > 100 µM | > 100 µM | > 100 µM | > 100 µM | – | – | – | – | – | – | – | – | – | – | – |
| CC1(C)OC(=O)C=C([O-])O1.CC1(C)OC(=O)C=C([O-])O1.O=S(=O)([O-])c1ccc([O-])c2ncccc12.O=S(=O)([O-])c1ccc([O-])c2ncccc12.[Ti+4] | > 100 µM | > 100 µM | > 100 µM | > 100 µM | > 100 µM | > 100 µM | 63.1 µM | > 100 µM | > 100 µM | > 100 µM | 41.8 µM | > 100 µM | 46.7 µM | 48.6 µM | > 100 µM | 25.9 µM | > 100 µM | 69.8 µM | – | – |
| Cc1ccc(S(=O)(=O)NC(=O)NC23CC4CC(CC(F)(C4)C2)C3)cc1 | > 100 µM | > 100 µM | > 100 µM | > 100 µM | > 100 µM | > 100 µM | > 100 µM | > 100 µM | > 100 µM | – | – | – | – | – | – | – | – | – | – | – |
| CC(C)(C)NCc1cc(C(C)(C)C)cc(-c2ccc(Cl)cc2)c1O | 34.8 µM | – | 53.2 µM | – | 32.4 µM | 40.5 µM | 28.2 µM | 23.8 µM | – | – | – | – | – | – | – | – | – | – | 24.8 µM | – |
| CCOC(=O)C(Cc1c[nH]c2ccc(N(CCCl)CCCl)cc12)(NC(C)=O)C(=O)OCC | 17.7 µM and 132 µM | – | 77.4 µM | 24.6 µM and 35.3 µM | 25.1 µM and 63.9 µM | 33.4 µM | 67 µM and 75.7 µM | 30.4 µM and 44.2 µM | 5.21 µM and 19.9 µM | – | 1.82 µM and 0.765 µM | 16.9 µM and 13.9 µM | 7.09 µM and 4.88 µM | 1.8 µM and 1.04 µM | 6.41 µM | 30.8 µM and 25.2 µM | 12.2 µM and 15.3 µM | 1.33 µM and 1.47 µM | 81.2 µM and 575 µM | 24.6 µM and 33.3 µM |
| CC(=O)OC1CC2C(C)(C)C(=O)C=C[C@]2(C)C2CCC3(C)C(c4ccoc4)C(=O)[C@H]4O[C@]43[C@]12C (some centres undefined) | 36.8 µM | 47.5 µM | – | 42.6 µM | – | 47.3 µM | 42.5 µM | > 100 µM | 62.3 µM | – | – | – | – | – | – | – | – | – | – | – |
| N=C(N=C(N)N)N1CCN(c2ccncc2)CC1 | > 1000 µM | – | > 1000 µM | > 1000 µM | > 1000 µM | > 1000 µM | > 1000 µM | > 1000 µM | > 1000 µM | – | > 1000 µM | > 1000 µM | > 1000 µM | > 1000 µM | > 1000 µM | > 1000 µM | > 1000 µM | > 1000 µM | > 1000 µM | > 1000 µM |
| NC(=O)N/N=C/C(/C=N/NC(N)=O)[N+](=O)[O-] | – | > 100 µM | > 100 µM | > 100 µM | > 100 µM | > 100 µM | > 100 µM | > 100 µM | > 100 µM | – | – | – | – | – | – | – | – | – | – | – |
| CCCCCC(=O)c1ccc2[nH]c3c(C)cc([N+](=O)[O-])c(C)c3c2c1 | > 100 µM | – | > 100 µM | > 100 µM | > 100 µM | > 100 µM | > 100 µM | > 100 µM | > 100 µM | – | – | – | – | – | – | – | – | – | – | – |
| CC(=O)O[C@H]1CC[C@@]2(C)C(=CC[C@H]3[C@@H]4C/C(=C\c5cccc(OCCN6CCOCC6)c5)[C@H](OC(C)=O)[C@@]4(C)CC[C@@H]32)C1 | 20.7 µM | – | 5.11 µM | 18.4 µM | 20.5 µM | 9.92 µM | 56.2 µM | 19.4 µM | 16.7 µM | – | 6.39 µM | 2.16 µM | 5.94 µM | 5.05 µM | 2.99 µM | 15 µM | 6.46 µM | 3.87 µM | 13.3 µM | 3.12 µM |
| COc1ccc2c(c1OC)C1=C(C2=O)c2cc3c(cc2CCN1)OCO3 | 92.7 µM | > 100 µM | 43.3 µM | 61.1 µM | > 100 µM | 59.3 µM | 97.4 µM | > 100 µM | > 100 µM | – | – | – | – | – | – | – | – | – | – | – |
| CCNC(=O)C#CC(=O)NCC | > 100 µM | > 100 µM | > 100 µM | > 100 µM | > 100 µM | > 62.8 µM | > 100 µM | > 100 µM | > 72.3 µM | > 100 µM | > 10 µM | > 10 µM | > 10 µM | > 10 µM | > 10 µM | > 10 µM | – | > 10 µM | – | – |
| O=S(=O)(NCC1CCC(CNc2ccc(Cl)cc2)CC1)c1ccc(-c2ccccc2)cc1 (centres undefined) | > 50 µM | – | – | > 50 µM | > 50 µM | > 50 µM | > 50 µM | > 50 µM | > 50 µM | – | 42.5 µM | – | 45.7 µM | 9.21 µM | 12.5 µM | 29.3 µM | > 50 µM | > 50 µM | > 50 µM | 15.7 µM |
| COc1ccc(C(N)=O)cc1N=NN(C)C | > 100 µM | – | > 100 µM | > 100 µM | > 100 µM | > 100 µM | > 100 µM | > 100 µM | > 100 µM | – | – | – | – | – | – | – | – | – | – | – |
| CN1NC2(CCCCC2)ON=C1c1ccccc1 | > 100 µM | > 100 µM | > 100 µM | > 100 µM | > 100 µM | – | > 100 µM | > 100 µM | > 100 µM | – | – | – | – | – | – | – | – | – | – | – |
| ClC(Cl)c1nc(-c2cccnc2)n2nc(-c3ccccc3)cc2n1 | 4.21 µM | 2.45 µM | – | – | 9 µM | – | 5.43 µM | 2.39 µM | > 100 µM | 1.13 µM | 1.09 µM | – | – | 1.3 µM | – | 1.9 µM | 0.592 µM | 2.32 µM | 5.07 µM | 1.98 µM |
